Experimental data: patent publication US9593113B2, “Imide and acylurea derivatives as modulators of the glucocorticoid receptor” (BRISTOL-MYERS SQUIBB COMPANY, priority 2013, dated 2017)
Read-outs that look alike come from different tables or passages of the source.

System: AP-1 induced transcriptional activity
Experiment: Cellular transrepressional assay (AP-1 luciferase reporter, PMA-activated A549 cell)
Format: cell-based
Conditions: A549 cell, 10 ng/ml PMA, 7 hours; for EC50: read-out: AP-1 (EC50, nM) (measured in cellular transrepression assay)
Protocol: To measure the ability of test molecules to inhibit AP-1 induced transcriptional activity we utilized an A549 cell which was stably transfected with a plasmid containing 7×AP-1 DNA binding sites (pAP-1-Luc plasmid, Stratagene Co., La Jolla, Calif.) followed by the gene for luciferase. Cells were activated with 10 ng/ml of phorbol myristic acid (PMA) plus or minus test molecules for 7 hours. After 7 hours a luciferase reagent was added to measure luciferase enzymatic activity in the cell. After a 10 minute incubation of luciferase reagent with cells, luminescence was measured in a TOPCOUNT® luminescence counter. Repression of AP-1 activity was calculated as the percentage decrease in the signal induced by PMA alone. Test molecules were analyzed in the concentration range from 0.1 nM to 40 μM. EC50s were determined by using standard curve fitting methods such as Excel fit (Microsoft Co.). An EC50 is the test molecule concentration at which there is a 50% repression of the maximal inhibition of transcription, i.e., a 50% reduction of AP-1 activity.

SMILES | EC50 (Homo sapiens) | AP-1 Max % inhibition (measured in cellular transrepression assay) | EC50
CC(C)(C(=O)NC(=O)NC1CCCC1)[C@@H]1c2ccc(-c3ccc(C(=O)N4CCOCC4)cc3)nc2Oc2c(F)cccc21 [Example 20] |  | 29.26% | 135 nM
CC(C)(C(=O)NC(=O)Nc1ccccc1)[C@@H]1c2ccc(-c3ccc(C(=O)N4CCOCC4)cc3)nc2Oc2c(F)cccc21 [Example 21] |  | 39.92% | 21.7 nM
CCNC(=O)NC(=O)C(C)(C)[C@@H]1c2ccc(-c3ccc(C(=O)N4CCOCC4)cc3)nc2Oc2c(F)cccc21 [Example 22] |  | 44.77% | 8.21 nM
CC(C)(C(=O)NC(N)=O)[C@H]1c2ccccc2Oc2nc(-c3ccc(C(=O)N4CCOCC4)cc3)ccc21 [Example 28] | 7.63 nM | 68.66% | 
CC(C)(C(=O)NC(N)=O)[C@H]1c2ccccc2Oc2nc(-c3ccc(C(=O)N4CCOCC4)c(F)c3)ccc21 [Example 44] |  | 69.43% | 13.9 nM
CC(C)(C(=O)NC(N)=O)[C@H]1c2ccccc2Oc2nc(-c3ccc(C(=O)N4CCOCC4)nc3)ccc21 [Example 55] |  | 60.59% | 116 nM
CC(C)(C(=O)NC(N)=O)[C@@H]1c2ccc(-c3ccc(C(=O)N4CCOCC4)c(F)c3)nc2Oc2c(F)cccc21 [Example 56] |  | 72.50% | 6.39 nM
CC(C)(O)c1ccc(-c2ccc3c(n2)Oc2c(F)cccc2[C@@H]3C(C)(C)C(=O)NC(N)=O)cc1 [Example 69] | 2.03 nM | 67.09% | 
COc1ccc2c(c1)Oc1ccccc1[C@@H]2C(C)(C)C(=O)NC(N)=O [Example 74] | 5000 nM | 7.70% | 

The next lines start with results.

EC50 (Homo sapiens) | SMILES | AP-1 Max % inhibition (measured in cellular transrepression assay) | EC50
4.97 nM | CC(=O)NC(=O)C(C)(C)[C@@H]1c2ccc(-c3ccc(C(=O)N4CCOCC4)cc3)nc2Oc2c(F)cccc21 [Example 2] | 67.48% | 
267 nM | CC(=O)NC(=O)C(C)(C)[C@@H]1c2ccc(-c3ccc(C(=O)N(C)C)cc3)nc2Oc2c(F)cccc21 [Example 3] | 79.66% | 
6.65 nM | CC(=O)NC(=O)C(C)(C)[C@H]1c2ccccc2Oc2nc(-c3ccc(C(=O)N4CCOCC4)cc3)ccc21 [Example 4] | 67.93% | 
180 nM | CCC(=O)NC(=O)C(C)(C)[C@@H]1c2ccc(-c3ccc(C(=O)N4CCOCC4)cc3)nc2Oc2c(F)cccc21 [Example 5] | 32.83% | 
623 nM | CC(C)(C(=O)NC(=O)N1CCOCC1)[C@@H]1c2ccc(-c3ccc(C(=O)N4CCOCC4)cc3)nc2Oc2c(F)cccc21 [Example 10] | 66.12% | 
337 nM | CNC(=O)NC(=O)C(C)(C)[C@@H]1c2ccc(Cl)nc2Oc2c(F)cccc21 [Example 14] | 54.92% | 
47.1 nM | CNC(=O)NC(=O)C(C)(C)[C@@H]1c2ccc(-c3ccc(C(C)(C)O)cc3)nc2Oc2c(F)cccc21 [Example 15] | 61.15% | 
199 nM | CC(C)NC(=O)NC(=O)C(C)(C)[C@@H]1c2ccc(-c3ccc(C(=O)N4CCOCC4)cc3)nc2Oc2c(F)cccc21 [Example 19] | 25.94% | 
5000 nM | COC(=O)NC(=O)C(C)(C)[C@@H]1c2ccc(-c3ccc(C(=O)OC)cc3)nc2Oc2c(F)cccc21 [Example 26] | 6.98% | 
786 nM | CC(C)(C(=O)NC(=O)NCCO)[C@@H]1c2ccc(-c3ccc(C(=O)N4CCOCC4)cc3)nc2Oc2c(F)cccc21 [Example 77] | 55.34% | 
